Measured values taken from US6991902B2, “Nucleobase heterocyclic combinatorialization” (ISIS Pharmaceuticals, Inc., priority 1997, dated 2006).

Columns and labels:
Conditions in all cases: deblocked single compounds
[1] = test system: Entercoccus hirae; assay: Antimicrobial assay (MIC), Entercoccus hirae; format: cell-based
[2] = test system: E. coli imp-; assay: Antimicrobial assay (MIC), E. coli imp-; format: cell-based, Escherichia coli
Experimental: In this assay, the strain E. coli imp- obtained from Spenser Bensen (Sampson., B. A., Misra, R. & Benson, S. A. (1989), Genetics, 122, 491-501, Identification and characterization of a new gene of Escherichia coli K-12 involved in outer membrane permeability) is used. To initiate the exponential phase of bacterial growth prior to the assay, a sample of bacteria is grown overnight at 37° C. in Luria broth. This bacteria is then used to reinoculate sample wells of 96-well microtiter plates. The assays are carried out in the 96-well microtiter plates in 150 μL volume with approximately 1×10^6 cells per well.
Bacteria in Luria broth (75 μL) is added to the compound mixtures in solution in 75 μL water in the individual well of the microtiter plate. Final concentrations of the compound mixtures are 25 μM, 10 μM and 1 μM. Each concentration of the compound mixtures are assayed in triplicate. The plates are incubated at 37° C. and growth monitored over a 24 hour period by measuring the optical density at 595 nm using a BioRad model 3550 UV microplate reader. The percentage of growth relative to a well containing no compound is determined. […]
Libraries in accordance with the present invention have been tested for antibacterial activity utilizing assays that determine the minimum inhibitory concentration (MIC). […] Activity has been detected in a number of libraries of the present invention.

[3] = test system: Staphylococcus aureus; assay: Antimicrobial assay (MIC), Staphylococcus aureus; format: cell-based
Experimental: In this assay, the strain S. aureus ATCC 25923 (American Type Culture Collection) is used in the bioassay. To initiate the exponential phase of bacterial growth prior to the assay, a sample of bacteria is grown overnight at 37° C. in typtocase soy broth (BBL). This bacteria is then used to reinoculate sample wells of 96-well microtiter plates. The assays are carried out in the 96-well microtiter plates in 150 μL volume with approximately 1×10^6 cells per well.
Bacteria in typtocase soy broth (75 μL) is added to the compound mixtures in solution in 75 μL water/4% DMSO in the individual well of the microtiter plate. Final concentrations of the compound mixtures are 25 μM, 10 μM and 1 μM. Each concentration of the compound mixtures are assayed in triplicate. The plates are incubated at 37° C. and growth monitored over a 24 hour period by measuring the optical density at 595 nm using a BioRad model 3550 UV microplate reader. The percentage of growth relative to a well containing no compound is determined. Ampicillin and tetracycline antibiotic positive controls are concurrently tested in each screening assay.

[4] = test system: Klebsiella pneumoniae; assay: Antimicrobial assay (MIC), Klebsiella pneumoniae; format: cell-based
[5] = test system: Escherichia coli; assay: Antimicrobial assay (MIC), Escherichia coli; format: cell-based
[6] = test system: Streptococcus pyogenes; assay: Antimicrobial assay (MIC), Streptococcus pyogenes; format: cell-based

6-[(2-Aminobenzothiazole acetyl)piperazinyl]-2-[(m-chlorobenzyl)-piperazinyl]-N9-[(N′-t-Boc-N″-acetyl)piperazinyl]purine [Compound 46]
minimum inhibitory activity, Entercoccus hirae [1]: 3 to 6 µM | minimum inhibitory activity, E. coli. imp- [2]: 3 to 6 µM | minimum inhibitory activity, Staphylococcus aureus [3]: 3 to 6 µM | minimum inhibitory activity, Klebsiella pneumoniae [4]: 3 to 6 µM | minimum inhibitory activity, Escherichia coli [5]: 50 to 100 µM | minimum inhibitory activity, Streptococcus pyogenes [6]: 3 to 6 µM

6-[(2-aminobenzothiazole acetyl)piperazinyl]-2-[(N-m-triflouromethylbenzyl)piper-azinyl]-N9-[(N′-t-Boc-N″-acetyl)piperazinyl]purine [Compound 50]
minimum inhibitory activity, Entercoccus hirae [1]: 3 µM | minimum inhibitory activity, E. coli. imp- [2]: 3 µM | minimum inhibitory activity, Staphylococcus aureus [3]: 3 to 6 µM | minimum inhibitory activity, Klebsiella pneumoniae [4]: 3 to 6 µM | minimum inhibitory activity, Escherichia coli [5]: >100 µM | minimum inhibitory activity, Streptococcus pyogenes [6]: 3 to 6 µM
